Measured values: patent US8686224B2, “Plant defense signal peptides” (priority 2005, dated 2014)
pKd: −log10 of the molar value. Entries after “also recorded” stand apart in the source; their conditions may differ.

Legend:
[1] = molecular target: T1, AtPep1 receptor (At1g73080, AtPEPR1) (Arabidopsis thaliana, UniProt Q9SSL9); test: Binding assay of 125I1-Tyr-AtPep1 with Arabidopsis suspension cultured cells
T1 sequence (Q9SSL9 29-1123): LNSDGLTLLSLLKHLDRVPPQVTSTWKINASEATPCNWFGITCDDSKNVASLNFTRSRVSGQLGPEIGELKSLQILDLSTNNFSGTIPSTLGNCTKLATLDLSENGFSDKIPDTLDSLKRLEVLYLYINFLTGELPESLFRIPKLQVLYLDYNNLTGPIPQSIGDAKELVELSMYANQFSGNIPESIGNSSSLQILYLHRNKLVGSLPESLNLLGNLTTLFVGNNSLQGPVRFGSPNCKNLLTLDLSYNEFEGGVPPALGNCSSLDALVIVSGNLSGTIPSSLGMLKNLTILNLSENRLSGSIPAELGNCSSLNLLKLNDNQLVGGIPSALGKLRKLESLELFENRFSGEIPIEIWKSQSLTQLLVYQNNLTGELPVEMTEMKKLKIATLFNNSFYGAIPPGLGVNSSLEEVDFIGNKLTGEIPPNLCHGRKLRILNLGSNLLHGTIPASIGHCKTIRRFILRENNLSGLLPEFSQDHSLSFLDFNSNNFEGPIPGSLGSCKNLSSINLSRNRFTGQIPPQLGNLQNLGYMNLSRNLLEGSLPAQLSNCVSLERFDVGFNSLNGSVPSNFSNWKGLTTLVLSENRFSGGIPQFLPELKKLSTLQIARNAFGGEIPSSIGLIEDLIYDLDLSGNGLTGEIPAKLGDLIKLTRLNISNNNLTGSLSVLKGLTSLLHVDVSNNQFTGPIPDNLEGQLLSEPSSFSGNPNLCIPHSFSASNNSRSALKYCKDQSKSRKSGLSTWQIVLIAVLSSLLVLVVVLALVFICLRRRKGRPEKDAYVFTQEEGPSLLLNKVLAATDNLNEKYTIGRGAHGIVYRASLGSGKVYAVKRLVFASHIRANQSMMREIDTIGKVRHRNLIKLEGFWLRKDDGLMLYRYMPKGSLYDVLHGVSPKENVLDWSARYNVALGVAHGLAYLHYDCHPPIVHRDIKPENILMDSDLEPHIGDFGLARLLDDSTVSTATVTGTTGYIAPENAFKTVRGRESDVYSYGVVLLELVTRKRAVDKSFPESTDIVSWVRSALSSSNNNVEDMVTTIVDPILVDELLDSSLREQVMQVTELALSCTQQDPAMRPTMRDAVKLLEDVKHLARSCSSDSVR
Description: Binding assays. […] The filtered cells were washed three times with 5 mL of cold MS medium containing 3% sucrose, suspended in 1 mL MS medium containing 3% sucrose in a glass test tube, and analyzed for total radioactivity in a gamma-ray counter (Isodata 2020; Isodata Inc., Palatine, Ill.).

[2] = tested on: defense gene expression in excised Arabidopsis leaves; test: Excised-leaf assay, semi-quantitative RT-PCR of gene expression; type: in vivo, Arabidopsis thaliana
Description: Excised-leaf assays. AtPep1 peptide dissolved in double distilled water was supplied to excised leaves of 3 to 4 week old Arabidopsis plants. Leaves were excised and the petioles were immersed in 800 μL centrifuge tubes containing either the peptide solution or distilled water, and placed in a closed clear plexiglass box containing a thin layer of water for humidity, and a small opening to allow air to enter. Boxes were incubated in a growth chamber under the plant growth conditions described above and sprayed with a fine mist of distilled water every half hour to ensure humidity and prevent wilting. To determine variations in basal levels of the AtproPep1 transcript among assays, four different leaves from four different plants were used for each treatment, and leaves supplied with either water or AtPep1 were taken from the same plants. Assays were terminated by immersing the leaves in liquid nitrogen.
Semi-quantitative RT-PCR analysis of relative gene expression levels. RNA was isolated using Trizol reagent and manufacturer's instructions (Invitrogen. Carlsbad Calif.), and 2 μg of RNA template was reverse transcribed with a RETROscript kit (Ambion, Austin Tex.). PCR reactions were carried out with ExTaq Hot Start polymerase and reagents (Fisher Scientific, Pittsburgh Pa.). The AtproPep1 forward and reverse primers with the respective sequences of 5′ […] 3′ (SEQ ID NO: 59) and 5′ […] 3′ (SEQ ID NO: 60) generated a 310 bp intron-spanning product. Primers to β-tubulin (At5g62690) of 5′ […] 3′ (SEQ ID NO: 73) and 5′ […] 3′ (SEQ ID NO: 74) generated a 681 base pair intron-spanning product. An initial denaturing/polymerase activating step of 5 minutes at 94° C. was followed by 31 repetitions of the following three steps: a thirty second denaturation phase at 94° C., a thirty second annealing period at 55.5° C., and a one minute elongation step at 72° C. The amplification program was terminated with a 10 minute final 72° C. elongation phase.
The products of each reaction were separated by electrophoresis and were visualized on a Bio Imaging System (SynGene, Frederick Md.) using GeneSnap version 6.00.26 software (SynGene, Frederick Md.). A high resolution image of the gel was analyzed using GeneTools analysis software version 3.02.00 (SynGene, Frederick Md.). Relative band intensities for each band were normalized to the β-tubulin band. A numerical ratio of amplified AtproPep1 cDNA to amplified tubulin cDNA was obtained for every sample. To calculate average values, semi-quantitative RT-PCR assays were performed in duplicate, and RNA extractions were performed in triplicate.
Analysis of gene expression using RT-PCR. Gene expression was analyzed using RT-PCR (Nishimura et al., Plant Cell 16:1365-1377, 2004).
Expression analysis of AtproPep1 in response to abiotic and biotic cues. As a first step in seeking a possible function for AtproPep1 and its encoded peptide, the basal expression level of the gene was assessed in leaves, stems, roots and flowers of Arabidopsis plants was studied using semi-quantitative RT-PCR analysis of AtproPep1 gene expression in response to treatment of leaves with MeJA, ethephon, MeSA, and AtPep1. The relative abundance of the proAtPep1 transcript was estimated from the expression of the β-tubulin gene as a control. Leaves were wounded by crushing once across the mid-vein with a hemostat. Plants were sprayed with a 250 μM solution of MeJA in 0.1% Triton X-100; with a 2 μM solution of MeSA in 0.1% Triton X-100 or with a 7 mM solution of ethephon in 0.1% Triton X-100. AtPep1 peptide (10 nM in water) was supplied through cut petioles of excised leaves. Total RNA was extracted and analyzed.
In order to determine whether AtPep1 regulates defense gene expression, we determined the fold induction of defense related genes in excised Arabidopsis leaves in response to 10 nM AtPep1 supplied through their cut petioles. […]

H-ATKVKAKQRGKEKVSSGRPGQHN-OH [AtPep1] was tested. Which pKd [1] did it give?
The pKd was 9.60.

And the “expression of the AtproPep1 gene” value ([2]; 10 nM through cut petioles of excised leaves, within two hours)?
Its value is “induced expression”.

And the “expression of PDF1.2 and PR-1” value ([2]; 10 nM through cut petioles, 2 hr, wild type)?
The value was “most strongly expressed; also recorded: induced a strong expression”.

What about the “expression of AtproPep1, PDF1.2 or PR-1 in mutants” value ([2]; 10 nM, 2 hr, triple mutant fad3-2, fad7-2, fad8 and mutant ein2-1) of the same substance?
The value was “did not induce”.

And the “expression of LOX2 and VSP2” value ([2]; 10 nM, two hours, wild type)?
The value was “not induced”.

And the “expression of PR-3, PR-4 and TAT” value ([2]; 10 nM, two hours, wild type)?
The value was “expressed at lower levels”.

What about the “expression of At5g64905, At5g64900, At5g64890 and At5g09980” value ([2]; supplied through cut petioles of excised leaves) of the same substance?
Its value is “expressed relatively strongly”.
